Experimental data reported in patent US20260184742A1, “PEPTIDES” (CAROCELL BIO LIMITED, priority 2022, published 2026).
Like-named read-outs stand apart in the source and are kept apart here. Where no end group is shown, it is not given here.

What was measured:
[1] = tested on: AD phenotype of skin biopsies (white space; Filaggrin, Involucrin, TSLP); assay: Atopic Dermatitis (AD) model in skin biopsies; format: cell-based; conditions: for phenotype: donor ALC1373, 0.1 and 1.0 μg/ml, appeared an improvement above Clobetasol; for phenotype ("white space") analysis: 0.1, 1.0 and 2.5 μg/ml, not as apparent as Clobetasol
Description: The AD phenotype was assessed by measuring the intensity of the “white space” within the biopsies—this was increased from 20% in the media alone control to 80% on AD induction and reduced with Clobetasol (a topical corticosteroid) to 40%. All concentrations of the compound (JEL0305, JEL2603, JEL1103 or JEL0802) reduced the white space by between 50 and 60% as a similar trend to Clobetasol. Three further donors (ALC1373, ALC1366 and ALC1365) were used to develop atopic dermatitis after treatment with activated PBMC and a cytokine cocktail model and assessed phenotypically as well as by biomarker (Filaggrin, Involucrin and TSLP) by immunohistochemistry. For 2 donors (ALC1366 and ALC1365) Filaggrin and Involucrin were reduced compared non-AD induced skin biopsies in media alone. This is the expected response for AD induction. In the presence of the control drug Clobetasol the expression of Filaggrin and Involucrin was increased due to the drug reversing the AD phenotype. […] But this was not as apparent as Clobetasol more than likely due to the lipid formulation causing an upregulation of cytokines. […] Filaggrin results were inconclusive.

[2] = tested on: HLA (human leucocyte antigen) mismatched GvHD model; assay: Skimune skin explant assay, HLA mismatched GvHD model; format: cell-based; conditions: LNP formulation of the compound, added throughout the mixed lymphocyte reaction and spiked into the skin explant
[3] = tested on: pro-inflammatory cytokines including Th1 (IFNγ, TNFα, IL-1β) and Th2 cytokines (IL-13 and IL-4)
[4] = tested on: human TNFα in activated M1-macrophages (THP1-derived, LPS-activated); assay: In vitro anti-inflammatory activity (ELISA), TNFα as marker; format: cell-based; conditions: compared with T0, 100 ng/mL
Description: The anti-inflammatory response of each free peptide and each peptide-polymer formulation was determined using TNFα as a marker. The anti-inflammatory bioactivity was assessed using enzyme-linked immunosorbent assay (ELISA) for quantitative detection of human TNFα in activated M1-macrophages. THP1 human monocytes were differentiated into macrophages (M0), which were then activated (overnight) with lipopolysaccharide (LPS) into M1-macrophages. LPS prompts the abundant production of many pro-inflammatory cytokines from macrophages, including TNF-α, which actively contributes to the inflammatory response. At the T0 and T4 (after 4 weeks storage at RT or 4° C.) time points, each JEL peptide and each JEL-polymer formulation was incubated in previously LPS-activated M1-macrophages for 24 h at 37° C. After incubation, supernatants were collected, centrifuged and stored at −80° C. in readiness for the enzyme-linked immunosorbent assay (ELISA). Each supernatant sample was defrosted and the ELISA assay undertaken according to the Invitrogen protocol. FIGS. 1-4 show the concentrations of human TNFα detected by ELISA after incubation with each free and polymer loaded peptide at a concentration of 100 ng/mL.

[5] = tested on: pro-inflammatory cytokines including Th1 (IFNγ, TNFα, IL-1β) and Th2 cytokines (IL-13 and IL-4); assay: Cytokine levels from the Skimune assays; conditions: current concentrations and lipid formulation; GvHD type assays
[6] = donors ALC1366 and ALC1365, compound at 0.1, 1.0 and 2.5 μg/ml
[7] = after 4 weeks storage at room temperature (RT)

Compound | phenotype [1] | phenotype ("white space") analysis ([1]; donors ALC1366 and ALC1365) | Graft versus Host reaction grade [2] | inhibition of the Graft versus Host response [2] | pro-inflammatory cytokines [3] | anti-inflammatory activity (human TNFα detected by ELISA) after storage ([4]; after 4 weeks storage at 4° C.) | anti-inflammatory activity (human TNFα detected by ELISA) after storage [4, 7] | pro-inflammatory cytokines [5] | further results
C[C@H]1C[C@H]2[C@@H]3CCC4=CC(=O)C=C[C@]4(C)[C@@]3(F)[C@@H](O)C[C@]2(C)[C@@]1(O)C(=O)CCl [Clobetasol, reference compound] |  |  |  |  |  |  |  |  | intensity of the "white space" within the biopsies ([1]; 20% in media alone control, 80% on AD induction): 40%; Filaggrin expression by immunohistochemistry [1, 6]: increased; Involucrin expression by immunohistochemistry [1, 6]: increased
HKSRARLIFHEGPCGVRR [JEL1103] | some improvement of the phenotype | improved and reversal of damage | Grade III | no inhibition | significant increases | maintained | maintained |  | 
SRALKIFLATRKDRSPWH [JEL2603] | some improvement of the phenotype | improved and reversal of damage | Grade III | no inhibition | significant increases | some diminution of anti-inflammatory activity | activity is lost |  | 
SRALLIFQKI [JEL0802, Ser-Arg-Ala-Leu-Leu-Ile-Phe-Gln-Lys-Ile] |  |  |  |  |  |  |  | significant increases | 
VSRATRIFKLSQLRGQCA [JEL0305, Val-Ser-Arg-Ala-Thr-Arg-Ile-Phe-Lys-Leu-Ser-Gln-Leu-Arg-Gly-Gln-Cys-Ala] |  |  |  |  |  |  |  | significant increases | 
